Square brackets hold non-standard residues; d marks the D form. Peptide text beside a SMILES is read from it. * marks the point of attachment. NHPhenethyl = c1ccc(CCN*)cc1; PhAc = O=C(Cc1ccccc1)*
Tests used:
[1] = molecular target: T1, human BRS-3 (subtype 3 of the human bombesin receptor) (Homo sapiens, UniProt P32247); test: FLIPR test: agonistic activity on BRS-3 (Ca2+ fluorescence, Fluo4) in transfected CHO cells; format: cell-based; conditions: for EC50: CHO-K1 cells co-expressing human BRS-3 and human Gα16, 50% activation relative to maximum response of nonapeptide [D-Phe6,β-Ala11,Phe13,Nle14]Bn(6-14) (=100%)
T1 construct: expressed in transfected cells; host or cells: CHO-K1 cells, stably transfected with RD-HGA16 (human Gα16) and pcDNA3.1(-)-BRS-3; single-cell clone selected
T1 sequence (P32247 1-399): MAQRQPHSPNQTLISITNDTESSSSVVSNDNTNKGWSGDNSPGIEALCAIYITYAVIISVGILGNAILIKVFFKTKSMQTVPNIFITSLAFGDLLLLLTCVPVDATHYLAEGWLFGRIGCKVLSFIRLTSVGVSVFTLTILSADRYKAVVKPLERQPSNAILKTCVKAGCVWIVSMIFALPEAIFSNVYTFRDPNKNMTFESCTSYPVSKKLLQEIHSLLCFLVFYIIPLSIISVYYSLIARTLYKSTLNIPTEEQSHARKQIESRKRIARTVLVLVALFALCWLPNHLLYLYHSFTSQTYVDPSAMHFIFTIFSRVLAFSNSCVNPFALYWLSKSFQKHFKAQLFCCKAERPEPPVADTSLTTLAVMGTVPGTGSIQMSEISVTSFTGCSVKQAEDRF
Text: For this, CHO cells (=“Chinese hamster ovary cells”) initially were transfected in known manner with an expression vector for the subtype 3 of the human bombesin receptor, i.e. BRS-3.
The cDNA of the human BRS-3 (nucleotide sequence under GenBank Accession No. L08893) was excised from the plasmid vector pGEM4 (from Promega, USA) using the restriction endonuclease EcoRI and was subcloned into the expression vector pcDNA3.1(−) (from Invitrogen, USA). CHO-K1 cells, which were already stably transfected with the expression vector RD-HGA16, which bears the cDNA sequence of the human Gα16 protein (nucleotide sequence under GenBank Accession No. M63904), were placed in sample plates with 24 sample wells (“24-well plate”) and incubated overnight under sterile conditions in an air-humidified incubator at 37° C. and 5% CO2 in F-12 medium plus Glutamax-I (from GibcoBRL, cat. No. 31765), to which 10%-strength foetal calf serum (inactivated at 56° C. for 1 h, from GibcoBRL), 25 μg/ml gentamicin (from GibcoBRL) and 0.2 mg/ml hygromycin B (from GibcoBRL) had been added. The next day, the cells were transfected with the BRS-3 expression vector by adding, using the “Effectene Transfection Reagent” (from Qiagen), 12 μl of a solution containing 0.3 μg/μl DNA of the expression vector per sample well. One day after transfection, the culture medium was replaced by selection medium. For this, the transfected cells, which each simultaneously express BRS-3 and the human Gα16 protein, were cultivated under sterile conditions at 37° C. and 5% CO2 in F-12 medium plus Glutamax-I (from GibcoBRL, cat. No. 31765), to which 10%-strength foetal calf serum (inactivated at 56° C. for 1 h, from GibcoBRL), 25 μg/ml gentamicin (from GibcoBRL), 0.2 mg/ml hygromycin B (from GibcoBRL) and 0.5 mg/ml geneticin (from GibcoBRL) had been added. To optimize the cell test, the cells with the highest receptor expression rate were selected. For this, the transfected cells were diluted 1:30,000 with the selection medium described above and were placed in sample plates with 96 sample wells (“96-well plate”). The cells were incubated overnight at 37° C. and 5% CO2, then those sample wells which contained only an individual cell were selected. These cells were first started in sample plates with 24 sample wells (“24-well plate”) and then cultivated in Costar plastic flasks (first 25 ml and then 225 ml). The BRS-3 receptor expression of the respective individual cell clone was estimated by determination of the EC50 value of the synthetic nonapeptide [D-Phe^6,β-Ala^11,Phe^13,Nle^14]Bn(6-14) as ligand (for performance of the test see below). The transfected cells were stored at −80° C. in aliquots of 1.8 ml medium each with 10% dimethyl sulfoxide (=DMSO) (cell concentration 1×10^6 cells/ml). For cultivation, a frozen aliquot was heated to 37° C., transferred into a Costar plastic flask (225 ml) and diluted with 50 ml of the selection medium described above. The medium was first changed once after 30 minutes' incubation. On each following first to third day, the medium was removed, the adherent cells (40-95% confluence) were washed with PBS Dulbecco's (from GibcoBRL) and detached from the bottom of the flask by a 2-minute treatment with trypsin-EDTA solution (from GibcoBRL) at 37° C. If the cells were to be cultivated further, they were transferred into a new plastic flask with fresh medium. If experiments were to be carried out with the cells, the cells were transferred into Costar sample plates with 96 sample wells, a clear baseplate and cover (“Costar 96-well assay plates”, from Coming), once the cell concentration had been set to 1.2×10^4 cells/ml.
BRS-3 is coupled via G-proteins to the Ca^2+-signal transduction path of the CHO cell. If an agonist binds to the receptor, the phospholipase C is activated via the G-protein, and then in turn catalyses the synthesis of water-soluble inositol phosphates. […]

NC(=O)CCC(NC(=O)Cc1cc2ccccc2[nH]1)C(=O)NC(Cc1c[nH]c2ccccc12)C(=O)NCCc1ccccc1 (centres unmarked) [Example 15]
EC50 [1]: 57 nM

O=C(Cc1cccnc1)NNC(=O)N[C@H](Cc1c[nH]c2ccccc12)C(=O)NCCc1ccccc1 [Example 4, N1-phenethyl-(2R)-2-{N′-[2-(3-pyridyl)-ethanoyl]-hydrazino}-carboxamido-3-(1H-3-indolyl)-propanamide]
EC50 [1]: 1.4 nM
melting point: 116 to 120 °C

O=C(CNCc1ccccc1)NC(Cc1c[nH]c2ccccc12)C(=O)NCCc1ccccc1 (centres unmarked) [Example 21]
EC50 [1]: 21 nM

O=C(CN1CCC(Cc2ccccc2)CC1)N[C@H](Cc1c[nH]c2ccccc12)C(=O)NCCc1ccccc1 [Example 7, N1-phenethyl-(2R)-2-[(4-benzylpiperidino)-methyl]-carboxamido-3-(1H-3-indolyl)-propanamide]
EC50 [1]: 30 nM
melting point: 73 to 75 °C

CC(NCCc1ccccc1)C(=O)NC(Cc1c[nH]c2ccccc12)C(=O)NCCc1ccccc1 (centres unmarked) [Example 26]
EC50 [1]: 25 nM

O=C(Cc1ccccc1)NNC(=O)NC(Cc1c[nH]c2ccccc12)C(=O)NCCc1ccccc1 (centres unmarked) [Example 27]
EC50 [1]: 3.1 nM

C[C@H](NC(=O)Cc1ccccc1)C(=O)N[C@H](Cc1c[nH]c2ccccc12)C(=O)NCCc1ccccc1 [Example 2, N1-phenethyl-(2R)-2-[(1S)-1-(benzylcarboxamido)-ethyl]-carboxamido-3-(1H-3-indolyl)-propanamide] (PhAc-Ala-[dW]-NHPhenethyl)
EC50 [1]: 2.1 nM
melting point: 205 to 207 °C

O=C(Cc1ccc(Cl)cc1)NNC(=O)NC(Cc1c[nH]c2ccccc12)C(=O)NCCc1ccccc1 (centres unmarked) [Example 28]
EC50 [1]: 0.19 nM

[D-Phe^6,β-Ala^11,Phe^13,Nle^14]Bn(6-14) [nonapeptide, reference compound]
peptide concentration at which the maximum change in fluorescence had already been observed ([1]; reference dilution series on each plate, adopted as 100% value): ~16 µM

CC(NC(=O)Cc1cccnc1)C(=O)NC(Cc1c[nH]c2ccccc12)C(=O)NCCc1ccccc1 (centres unmarked) [Example 19]
EC50 [1]: 32 nM

O=C(N/N=C/c1ccco1)N[C@H](Cc1c[nH]c2ccccc12)C(=O)NCCc1ccccc1 [Example 6, N1-phenethyl-(2R)-2-[N′-(furan-2-ylmethylene)-hydrazino]-carboxamido-3-(1H-3-indolyl)-propanamide]
EC50 [1]: 1.5 nM
melting point: 100 to 101 °C

O=C(CNCCc1ccccc1)NC(Cc1c[nH]c2ccccc12)C(=O)NCCc1ccccc1 (centres unmarked) [Example 24]
EC50 [1]: 17 nM

O=C(CNCc1ccc(Cl)cc1)NC(Cc1c[nH]c2ccccc12)C(=O)NCCc1ccccc1 (centres unmarked) [Example 22]
EC50 [1]: 2.9 nM

O=C(Cc1cc2ccccc2[nH]1)NNC(=O)NC(Cc1c[nH]c2ccccc12)C(=O)NCCc1ccccc1 (centres unmarked) [Example 30]
EC50 [1]: 2.2 nM

O=C(NNCc1ccc(Cl)cc1)N[C@H](Cc1c[nH]c2ccccc12)C(=O)NCCc1ccccc1 [Example 5, N1-phenethyl-(2R)-2-[N′-(4-chlorobenzyl)-hydrazino]-carboxamido-3-(1H-3-indolyl)-propanamide]
EC50 [1]: 6 nM
melting point: 75 to 80 °C

O=C(CNCc1cccnc1)NC(Cc1c[nH]c2ccccc12)C(=O)NCCc1ccccc1 (centres unmarked) [Example 23]
EC50 [1]: 21 nM

CC(NCc1ccc(Cl)cc1)C(=O)N[C@H](Cc1c[nH]c2ccccc12)C(=O)NCCc1ccccc1 (mixture of isomers) [Example 3, N1-phenethyl-(2R)-2-{1-[(4-chlorobenzyl)-amino]-ethylcarboxamido}-3-(1H-3-indolyl)-propanamide]
EC50 [1]: 4 nM
melting point: 107 to 110 °C
